Assay results: the supplement of paper PMC13207355

Experiments:
Conditions in all cases: exposure time: 72 h
[1] = tested on: FT3469 (normal neural stem cell line); experiment: surviving fraction (nuclei count normalised to DMSO); higher = more cells surviving (less toxic)
[2] = tested on: E13 (patient-derived glioblastoma stem cells of classical subtype); experiment: as above
[3] = tested on: E57 (patient-derived glioblastoma stem cells of mesenchymal subtype); experiment: as above
[4] = tested on: E34 (patient-derived glioblastoma stem cells of proneural subtype); experiment: as above
[5] = tested on: E31 (patient-derived glioblastoma stem cells of proneural subtype); experiment: as above
[6] = tested on: E28 (patient-derived glioblastoma stem cells of classical subtype); experiment: as above
[7] = tested on: E21 (patient-derived glioblastoma stem cells of mesenchymal subtype); experiment: as above
[8] = tested on: FT3469; experiment: phenotypic distance (Euclidean, principal components) from DMSO controls (arbitrary units); higher = stronger morphological change
[9] = tested on: E13; experiment: as above
[10] = tested on: E57; experiment: as above
[11] = tested on: E34; experiment: as above
[12] = tested on: E31; experiment: as above
[13] = tested on: E28; experiment: as above
[14] = tested on: E21; experiment: as above
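Throughout, for phenotypic distance (Euclidean, principal components) from DMSO controls: cell Painting imaging in 384-well plates, CellProfiler features reduced to at least 20 principal components, Euclidean distance versus same-plate DMSO vehicle wells (0.1% v/v), median over six images per well.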
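Throughout, for surviving fraction (nuclei count normalised to DMSO): nuclei counted by high-content imaging of Hoechst-stained cells in laminin-coated 384-well plates, relative to 0.1% DMSO vehicle wells, with staurosporine as cell-death control.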

## CC1CNc2c(cccc2S(=O)(=O)N[C@@H](CCCNC(=N)N)C(=O)N2CC[C@@H](C)C[C@@H]2C(=O)O)C1 (stereo partly drawn) [Argatroban]
[1]; 4.1 nM
  surviving fraction: 0.74
[1]; 12.3 nM
  surviving fraction: 0.878
[1]; 37 nM
  surviving fraction: 0.961
[1]; 111.1 nM
  surviving fraction: 0.906
[1]; 333.3 nM
  surviving fraction: 1.09
[1]; 1000 nM
  surviving fraction: 0.99
[1]; 3000 nM
  surviving fraction: 0.886
[2]; 4.1 nM
  surviving fraction: 0.887
[2]; 12.3 nM
  surviving fraction: 0.726
[2]; 37 nM
  surviving fraction: 1.06
[2]; 111.1 nM
  surviving fraction: 0.787
[2]; 333.3 nM
  surviving fraction: 1.03
[2]; 1000 nM
  surviving fraction: 0.955
[2]; 3000 nM
  surviving fraction: 1.04
[3]; 4.1 nM
  surviving fraction: 1.01
[3]; 12.3 nM
  surviving fraction: 1.03
[3]; 37 nM
  surviving fraction: 0.918
[3]; 111.1 nM
  surviving fraction: 1.04
[3]; 333.3 nM
  surviving fraction: 1.04
[3]; 1000 nM
  surviving fraction: 1.01
[3]; 3000 nM
  surviving fraction: 0.888
[4]; 4.1 nM
  surviving fraction: 1.04
[4]; 12.3 nM
  surviving fraction: 1.04
[4]; 37 nM
  surviving fraction: 0.976
[4]; 111.1 nM
  surviving fraction: 0.935
[4]; 333.3 nM
  surviving fraction: 1.05
[4]; 1000 nM
  surviving fraction: 1.13
[4]; 3000 nM
  surviving fraction: 0.923
[5]; 4.1 nM
  surviving fraction: 1.08
[5]; 12.3 nM
  surviving fraction: 0.893
[5]; 37 nM
  surviving fraction: 0.911
[5]; 111.1 nM
  surviving fraction: 0.95
[5]; 333.3 nM
  surviving fraction: 0.959
[5]; 1000 nM
  surviving fraction: 1.04
[5]; 3000 nM
  surviving fraction: 1.12
[6]; 4.1 nM
  surviving fraction: 0.975
[6]; 12.3 nM
  surviving fraction: 0.963
[6]; 37 nM
  surviving fraction: 0.877
[6]; 111.1 nM
  surviving fraction: 1.3
[6]; 333.3 nM
  surviving fraction: 1.01
[6]; 1000 nM
  surviving fraction: 1.14
[6]; 3000 nM
  surviving fraction: 1.16
[7]; 4.1 nM
  surviving fraction: 0.935
[7]; 12.3 nM
  surviving fraction: 0.953
[7]; 37 nM
  surviving fraction: 0.963
[7]; 111.1 nM
  surviving fraction: 0.778
[7]; 333.3 nM
  surviving fraction: 1.07
[7]; 1000 nM
  surviving fraction: 1.08
[7]; 3000 nM
  surviving fraction: 1.11
[8]; 4.1 nM
  phenotypic distance: 3.82
[8]; 12.3 nM
  phenotypic distance: 1.39
[8]; 37 nM
  phenotypic distance: 0.709
[8]; 111.1 nM
  phenotypic distance: 0.753
[8]; 333.3 nM
  phenotypic distance: 0.744
[8]; 1000 nM
  phenotypic distance: 0.391
[8]; 3000 nM
  phenotypic distance: 1.07
[9]; 4.1 nM
  phenotypic distance: 0.936
[9]; 12.3 nM
  phenotypic distance: 1.03
[9]; 37 nM
  phenotypic distance: 0.706
[9]; 111.1 nM
  phenotypic distance: 0.818
[9]; 333.3 nM
  phenotypic distance: 0.637
[9]; 1000 nM
  phenotypic distance: 0.667
[9]; 3000 nM
  phenotypic distance: 0.543
[10]; 4.1 nM
  phenotypic distance: 0.489
[10]; 12.3 nM
  phenotypic distance: 0.826
[10]; 37 nM
  phenotypic distance: 0.498
[10]; 111.1 nM
  phenotypic distance: 0.438
[10]; 333.3 nM
  phenotypic distance: 0.495
[10]; 1000 nM
  phenotypic distance: 0.711
[10]; 3000 nM
  phenotypic distance: 0.963
[11]; 4.1 nM
  phenotypic distance: 0.682
[11]; 12.3 nM
  phenotypic distance: 0.667
[11]; 37 nM
  phenotypic distance: 0.842
[11]; 111.1 nM
  phenotypic distance: 0.535
[11]; 333.3 nM
  phenotypic distance: 0.743
[11]; 1000 nM
  phenotypic distance: 1.04
[11]; 3000 nM
  phenotypic distance: 1.26
[12]; 4.1 nM
  phenotypic distance: 0.911
[12]; 12.3 nM
  phenotypic distance: 0.664
[12]; 37 nM
  phenotypic distance: 0.863
[12]; 111.1 nM
  phenotypic distance: 0.601
[12]; 333.3 nM
  phenotypic distance: 2.25
[12]; 1000 nM
  phenotypic distance: 0.919
[12]; 3000 nM
  phenotypic distance: 0.822
[13]; 4.1 nM
  phenotypic distance: 0.894
[13]; 12.3 nM
  phenotypic distance: 0.602
[13]; 37 nM
  phenotypic distance: 0.844
[13]; 111.1 nM
  phenotypic distance: 0.794
[13]; 333.3 nM
  phenotypic distance: 0.356
[13]; 1000 nM
  phenotypic distance: 0.549
[13]; 3000 nM
  phenotypic distance: 0.893
[14]; 4.1 nM
  phenotypic distance: 1.43
[14]; 12.3 nM
  phenotypic distance: 0.727
[14]; 37 nM
  phenotypic distance: 1.18
[14]; 111.1 nM
  phenotypic distance: 0.876
[14]; 333.3 nM
  phenotypic distance: 1.26
[14]; 1000 nM
  phenotypic distance: 1.01
[14]; 3000 nM
  phenotypic distance: 1.26
